Source: PMC3352337, “Synergistic Antimycobacterial Actions of Knowltonia vesicatoria (L.f) Sims” (Evidence-based Complementary and Alternative Medicine : eCAM, 2012)
≈ marks a conversion by molar mass, not a printed value. Where two headings read alike, the source gives them in different places. Marks after values point to notes of the source that are not given here. *1 amine or outer side, *2 acyl side, *3 side chain or, on linkers, in order; H or OH if unused. Where a SMILES comes first, the peptide text is derived from it. Bridges are numbered along the chain shown (N, C = ends). Roman numbers before positions name the chains, in order. [ ]: non-standard residue; d: D form. Actinocin(9to1) = Cc1c2oc3c(C)ccc(C(=O)[*:1])c3nc-2c(C(=O)[*:2])c(N)c1=O; NMeV = CN[C@H](C(=O)O)C(C)C; Sar = CNCC(=O)O

How the values were obtained:
[1] = test system: M. tuberculosis H37Rv (ATCC 27294); experiment: microbe, parasite or virus in culture; assay type: cell-based, Mycobacterium tuberculosis; settings: for ΔGI4-3 ± SD: BACTEC growth index change, V2 10^-2 inoculum control 22.0 ± 2.94; for MIC: Mycobacterium tuberculosis, read-out: MIC (minimum inhibitory concentration)
[2] = XTT cytotoxicity assay on PMA-differentiated U937 cells; settings: human, PMA-differentiated U937 cells (macrophage-like), pH 7.2
U937 cells = experiment: as above; settings: for IC50: Homo sapiens, U-937, 72 h
[3] = test system: Mycobacterium smegmatis (MC^2 155); experiment: Microdilution (microplate INT) susceptibility assay on M. smegmatis; assay type: cell-based; settings: Mycolicibacterium smegmatis
Procedure: Cryopreserved or freshly scraped colonies were suspended in fresh Middlebrook 7H9 broth (Sigma-Aldrich Chemical Co., South Africa) and incubated for 24 h at 37°C. The overnight liquid culture was then transferred to a sterile test tube containing 20–25 glass beads (with a 2.00 mm diameter) and homogenised by using a vortex mixer (Heidolph, Germany) for 5–10 min. The broth culture was then left still for 5–10 min to let larger clumps of mycobacteria settle. The supernatant was carefully decanted to a sterile flask and adjusted with Middlebrook 7H9 broth base to an optical density of 0.2 (log phase) at 550 nm (Beckman DU-720 UV spectrophotometer), yielding 1.26 × 10^8 colony-forming units per millilitre (CFU/mL). The microdilution test was performed in 96-well microtiter plates as described earlier.
The plant extract and fractions were dissolved in 10% dimethyl sulfoxide (DMSO) to obtain a stock concentration of 10 mg/mL. Ciprofloxacin (Sigma-Aldrich Chemical Co., South Africa) at final concentrations ranging from 2.00 × 10^−3 to 7.80 × 10^−5 mg/mL served as the positive drug control. Serial twofold dilutions of each test sample were made with Middlebrook 7H9 broth base (Sigma-Aldrich Chemical Co., South Africa) to yield volumes of […] with final concentrations ranging from 2.50 to 0.08 mg/mL. […]

M. tuberculosis [4] = settings: cited from earlier work
M. tuberculosis [5] = experiment: Microplate assay MIC against M. tuberculosis (compound 2); assay type: cell-based, Mycobacterium tuberculosis; settings: BACTEC MIC not determined
[6] = read-out: IC50 (fifty percent inhibitory concentration)

SMILES: NNC(=O)c1ccncc1 [INH, isoniazid]
- ΔGI4-3 ± SD [1]: −2.50 ± 2.12
- MIC (minimum inhibitory concentration) ([1]; BACTEC radiometric): 0.20 µg/mL (≈ 1.46 µM)
- MIC ([1]; BACTEC radiometric): 0.2 µg/mL (≈ 1.46 µM)
- viability at 72 h, 200 μg/mL [2]: 80%
- IC50 (U937 cells; [6]): > 200 µg/mL

SMILES: O=C(O)c1cn(C2CC2)c2cc(N3CCNCC3)c(F)cc2c1=O [Ciprofloxacin]
- MIC ([3]; MC^2155, 24 h, INT microplate, read-out: MIC (minimum inhibitory concentration)): 1.25 µg/mL (≈ 3.77 µM)
- MBC ([3]; MC^2155, 48 h subculture, INT, read-out: MBC (minimum bactericidal concentration)): 1.25 µg/mL (≈ 3.77 µM)

SMILES: CC[C@H](/C=C/[C@@H](C)[C@H]1CC[C@H]2[C@@H]3CC=C4C[C@@H](O)CC[C@]4(C)[C@H]3CC[C@]12C)C(C)C [stigmasterol]
- MIC (M. tuberculosis [4]; phytosterols from Morinda citrifolia against M. tb ref 33 (Saludes et al.)): 32.00 µg/mL (≈ 77.5 µM)

SMILES: CCC(=CC[C@@H](C)[C@H]1CC[C@H]2[C@@H]3CC=C4CC(O)CC[C@]4(C)[C@H]3CC[C@]12C)C(C)C (some centres unmarked) [Compound (1), Stigmasta-5,23-dien-3-ol]
- ΔGI4-3 ± SD [1]: −9.00 ± 1.41
- MIC ([1]; BACTEC radiometric): 50 µg/mL (≈ 121 µM)
- IC50 (U937 cells; [6]): 16.41 ± 0.135 µg/mL (≈ 39.8 µM)

SMILES: Cc1c2oc3c(C)ccc(C(=O)N[C@@H]4C(=O)N[C@H](C(C)C)C(=O)N5CCC[C@H]5C(=O)N(C)CC(=O)N(C)[C@@H](C(C)C)C(=O)O[C@@H]4C)c3nc-2c(C(=O)N[C@@H]2C(=O)N[C@H](C(C)C)C(=O)N3CCC[C@H]3C(=O)N(C)CC(=O)N(C)[C@@H](C(C)C)C(=O)O[C@@H]2C)c(N)c1=O [Actinomycin D] (I: T[dV]P[Sar][NMeV] / II: T[dV]P[Sar][NMeV]; ester I:1-I:C, II:1-II:C; linker I:N-II:N via Actinocin(9to1))
- IC50 (U937 cells; read-out: IC50 (fifty percent inhibitory concentration), U937 macrophages, 72 h, XTT): 0.0038 µg/mL (≈ 0.00303 µM)
- IC50 (fifty percent inhibitory concentration) (U937 cells; U937 macrophages, 72 h, XTT): 3.820 ± 0.258 ×10^−3 μg/mL

SMILES: O=C1C=CC(CO)O1 (centres unmarked) [Compound (2), 5-(hydroxymethyl)furan-2(5H)-one]
- MIC determined via microplate assay (M. tuberculosis [5]): 100.0^k μg/mL
- MIC (M. tuberculosis [5]; Mycobacterium tuberculosis, read-out: MIC determined via microplate assay): 200 µg/mL (≈ 1750 µM)
- IC50 (U937 cells; [6]): 44.7 ± 0.5 µg/mL (≈ 392 µM)

SMILES: C=CC(O)(CC[C@@H](C)[C@H]1CC[C@H]2[C@@H]3CC=C4C[C@@H](O)CC[C@]4(C)[C@H]3CC[C@]12C)C(C)C (some centres unmarked) [saringosterol]
- MIC (M. tuberculosis [4]; M. tb ref 34): 0.250 µg/mL (≈ 0.583 µM)
